This is an account of results in patent US12338256B2, “Aza-tetracyclic oxazepine compounds and uses thereof” (Genentech, Inc., priority 2022, dated 2025).

Experiment [1] concerns HPAC (homozygous mutant KRAS G12D human pancreatic cell line). Nature of the experiment: KRAS 3D-Cell Proliferation Assay, HPAC (Example 503). The conditions noted are these: Homo sapiens, HPAC, 168 h, HPAC 3D culture, 7 days, CellTiter-Glo 3D; read-out: Prolif HPAC 3D ATP IC50. The experiment is classed as cell-based. In a few lines: (§1)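 IC50s come from a 4-parameter Hill fit of luminescence (CellTiter-Glo 3D) normalized between DMSO (0%) and 1 μM staurosporine (100%). Cells in low-attachment 3D culture, RPMI-1640 with 10% FBS, received serial compound dilutions (0.3% DMSO) after overnight and were incubated 7 days at 37 °C.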
(In general: In ATP-based viability assays light output follows the ATP content of the culture.)

Experiment [2] concerns H1975 (KRAS wild type human lung adenocarcinoma cell line). The experiment in a line: KRAS 3D-Cell Proliferation Assay, H1975 (Example 503). The experiment is classed as cell-based. Conditions: Homo sapiens, NCI-H1975, 168 h, H1975 3D culture, 7 days, CellTiter-Glo 3D; read-out: Prolif H1975 3D ATP IC50. An outline of the steps:
as §1

As usually defined, the IC50 is the concentration at which inhibition is half-maximal. Turning to `Cc1nc(N)cc(-c2nc3c4c(nc(OCC5(CN6CC(C(F)F)C6)CC5)nc4c2F)N2C[C@H]4CC[C@H](N4)[C@H]2[C@H](C)O3)c1C(F)(F)F` [Compound 274, 4-((5S,5aS,6S,9R)-12-((1-((3-(difluoromethyl)90eptalene-1-yl)methyl)cyclopropyl)methoxy)-1-fluoro-5-methyl-5a,6,7,8,9,10-hexahydro-5H-4-oxa-3,10a,11,13,14-pentaaza-6,9-methanonaphtho[1,8-ab]heptalene-2-yl)-6-methyl-5-(trifluoromethyl)pyridin-2-amine], the IC50 in experiment [1] stood at 7.55 nM; in experiment [2], 1070 nM.
For the molecule `CO[C@@H]1CCN(CC2(COc3nc4c5c(nc(-c6cc(N)nc(C)c6C(F)(F)F)c(F)c5n3)O[C@@H](C)[C@@H]3[C@@H]5CC[C@H](CN43)N5)CC2)C[C@@H]1F` [Compound 275, 4-((5S,5aS,6S,9R)-1-fluoro-12-((1-(((3S,4R)-3-fluoro-4-methoxypiperidin-1-yl)methyl)cyclopropyl)methoxy)-5-methyl-5a,6,7,8,9,10-hexahydro-5H-4-oxa-3,10a,11,13,14-pentaaza-6,9-methanonaphtho[1,8-ab]heptalene-2-yl)-6-methyl-5-(trifluoromethyl)pyridin-2-amine], the half-maximal inhibitory concentration (IC50) in experiment [1] was 3.29 nM; in experiment [2], 5180 nM.
The matching figures for `Cc1nc(N)cc(-c2nc3c4c(nc(OCC5(CN6CCC(C(F)F)C6)CC5)nc4c2F)N2C[C@H]4CC[C@H](N4)[C@H]2[C@H](C)O3)c1C(F)(F)F` (stereo partly drawn) [Compound 276, 4-((5S,5aS,6S,9R)-12-((1-((3-(difluoromethyl)pyrrolidin-1-yl)methyl)cyclopropyl)methoxy)-1-fluoro-5-methyl-5a,6,7,8,9,10-hexahydro-5H-4-oxa-3,10a,11,13,14-pentaaza-6,9-methanonaphtho[1,8-ab]heptalen-2-yl)-6-methyl-5-(trifluoromethyl)pyridin-2-amine]: 1.82 nM and 1620 nM.
Turning to `Cc1nc(N)cc(-c2nc3c4c(nc(OCC5(CN6CC7(C6)CC7(F)F)CC5)nc4c2F)N2C[C@H]4CC[C@H](N4)[C@H]2[C@H](C)O3)c1C(F)(F)F` [Compound 277, 4-((5S,5aS,6S,9R)-12-((1-((1,1-difluoro-5-azaspiro[2.3]hexan-5-yl)methyl)cyclopropyl)methoxy)-1-fluoro-5-methyl-5a,6,7,8,9,10-hexahydro-5H-4-oxa-3,10a,11,13,14-pentaaza[6,9]methanonaphtho[1,8-ab]heptalene-2-yl)-6-methyl-5-(trifluoromethyl)pyridin-2-amine], the half-inhibitory concentration (IC50) in experiment [1] amounted to 2.09 nM; in experiment [2] it was 974 nM.
The matching figures for `Cc1nc(N)cc(-c2nc3c4c(nc(OCC5(CN6CCC7(C6)CC7(F)F)CC5)nc4c2F)N2C[C@H]4CC[C@H](N4)[C@H]2[C@H](C)O3)c1C(F)(F)F` (stereo partly drawn) [Compound 279, 4-((5S,5aS,6S,9R)-12-((1-((1,1-difluoro-5-azaspiro[2.4]heptan-5-yl)methyl)cyclopropyl)methoxy)-1-fluoro-5-methyl-5a,6,7,8,9,10-hexahydro-5H-4-oxa-3,10a,11,13,14-pentaaza[6,9]methanonaphtho[1,8-ab]heptalene-2-yl)-6-methyl-5-(trifluoromethyl)pyridin-2-amine]: 2.02 nM and 1270 nM.
In the same order, the values of `Cc1nc(N)cc(-c2nc3c4c(nc(OCC5(CN6CC7CCOC7C6)CC5)nc4c2F)N2C[C@H]4CC[C@H](N4)[C@H]2[C@H](C)O3)c1C(F)(F)F` (stereo partly drawn) [Compound 280, 4-((5S,5aS,6S,9R)-1-fluoro-12-((1-((hexahydro-5H-furo[2,3-c]pyrrol-5-yl)methyl)cyclopropyl)methoxy)-5-methyl-5a,6,7,8,9,10-hexahydro-5H-4-oxa-3,10a,11,13,14-pentaaza-6,9-methanonaphtho[1,8-ab]heptalene-2-yl)-6-methyl-5-(trifluoromethyl)pyridin-2-amine] are 1.77 nM and 1340 nM.
In the same order, the values of `Cc1nc(N)cc(-c2nc3c4c(nc(OCC5(CN6CC7(CCCO7)C6)CC5)nc4c2F)N2C[C@H]4CC[C@H](N4)[C@H]2[C@H](C)O3)c1C(F)(F)F` [Compound 281, 4-((5S,5aS,6S,9R)-12-((1-((5-oxa-2-azaspiro[3.4]octan-2-yl)methyl)cyclopropyl)methoxy)-1-fluoro-5-methyl-5a,6,7,8,9,10-hexahydro-5H-4-oxa-3,10a,11,13,14-pentaaza[6,9]methanonaphtho[1,8-ab]heptalene-2-yl)-6-methyl-5-(trifluoromethyl)pyridin-2-amine] are 8.6 nM and 2430 nM.
On to `Cc1nc(N)cc(-c2nc3c4c(nc(OCC5(CN6CCCC67CCOC7)CC5)nc4c2F)N2C[C@H]4CC[C@H](N4)[C@H]2[C@H](C)O3)c1C(F)(F)F` (stereo partly drawn) [Compound 282, 4-((5S,5aS,6S,9R)-12-((1-((7-oxa-1-azaspiro[4.4]nonan-1-yl)methyl)cyclopropyl)methoxy)-1-fluoro-5-methyl-5a,6,7,8,9,10-hexahydro-5H-4-oxa-3,10a,11,13,14-pentaaza[6,9]methanonaphtho[1,8-ab]heptalene-2-yl)-6-methyl-5-(trifluoromethyl)pyridin-2-amine], for which the values for the IC50 in experiment [1] and in experiment [2] were 3.96 nM and 2450 nM, respectively.
In the same order, the values of `Cc1nc(N)cc(-c2nc3c4c(nc(OCC5(CN6CC[C@H](F)C6)CC5)nc4c2F)N2C[C@H]4CC[C@H](N4)[C@H]2[C@H](C)O3)c1C(F)(F)F` [Compound 283, 4-((5S,5aS,6S,9R)-1-fluoro-12-((1-(((S)-3-fluoropyrrolidin-1-yl)methyl)cyclopropyl)methoxy)-5-methyl-5a,6,7,8,9,10-hexahydro-5H-4-oxa-3,10a,11,13,14-pentaaza-6,9-methanonaphtho[1,8-ab]heptalene-2-yl)-6-methyl-5-(trifluoromethyl)pyridin-2-amine] are 1.58 nM and 577 nM.
`Cc1nc(N)cc(-c2nc3c4c(nc(OCC5(CN6CC[C@@H](F)C6)CC5)nc4c2F)N2C[C@H]4CC[C@H](N4)[C@H]2[C@H](C)O3)c1C(F)(F)F` [Compound 284, 4-((5S,5aS,6S,9R)-1-fluoro-12-((1-(((R)-3-fluoropyrrolidin-1-yl)methyl)cyclopropyl)methoxy)-5-methyl-5a,6,7,8,9,10-hexahydro-5H-4-oxa-3,10a,11,13,14-pentaaza-6,9-methanonaphtho[1,8-ab]heptalen-2-yl)-6-methyl-5-(trifluoromethyl)pyridin-2-amine]: the IC50 in experiment [1] stood at 1.23 nM; in experiment [2] it was 490 nM.
The matching figures for `Cc1nc(N)cc(-c2nc3c4c(nc(OCC5(CN6CC7(CCC7(F)F)C6)CC5)nc4c2F)N2C[C@H]4CC[C@H](N4)[C@H]2[C@H](C)O3)c1C(F)(F)F` [Compound 285, 4-((5S,5aS,6S,9R)-12-((1-((5,5-difluoro-2-azaspiro[3.3]heptan-2-yl)methyl)cyclopropyl)methoxy)-1-fluoro-5-methyl-5a,6,7,8,9,10-hexahydro-5H-4-oxa-3,10a,11,13,14-pentaaza[6,9]methanonaphtho[1,8-ab]heptalene-2-yl)-6-methyl-5-(trifluoromethyl)pyridin-2-amine]: 3.05 nM and 608 nM.
For `Cc1nc(N)cc(-c2nc3c4c(nc(OCC5(CN6CCC7(CCCO7)C6)CC5)nc4c2F)N2C[C@H]4CC[C@H](N4)[C@H]2[C@H](C)O3)c1C(F)(F)F` (stereo partly drawn) [Compound 287, 4-((5S,5aS,6S,9R)-12-((1-((1-oxa-7-azaspiro[4.4]nonan-7-yl)methyl)cyclopropyl)methoxy)-1-fluoro-5-methyl-5a,6,7,8,9,10-hexahydro-5H-4-oxa-3,10a,11,13,14-pentaaza[6,9]methanonaphtho[1,8-ab]heptalene-2-yl)-6-methyl-5-(trifluoromethyl)pyridin-2-amine], the concentration for half-maximal inhibition (IC50) in experiment [1] was found to be 5.72 nM; in experiment [2] it was 1380 nM.
With `Cc1nc(N)cc(-c2nc3c4c(nc(OCC5(CN6CCC(F)(F)C6)CC5)nc4c2F)N2C[C@H]4CC[C@H](N4)[C@H]2[C@H](C)O3)c1C(F)(F)F` [Compound 288, 4-((5S,5aS,6S,9R)-12-((1-((3,3-difluoropyrrolidin-1-yl)methyl)cyclopropyl)methoxy)-1-fluoro-5-methyl-5a,6,7,8,9,10-hexahydro-5H-4-oxa-3,10a,11,13,14-pentaaza-6,9-methanonaphtho[1,8-ab]heptalene-2-yl)-6-methyl-5-(trifluoromethyl)pyridin-2-amine], the 50% inhibitory concentration (IC50) in experiment [1] was found to be 18.8 nM; in experiment [2], 9810 nM.
In the same order, the values of `Cc1nc(N)cc(-c2nc3c4c(nc(OCC5(CN6CC(C)(F)C6)CC5)nc4c2F)N2C[C@H]4CC[C@H](N4)[C@H]2[C@H](C)O3)c1C(F)(F)F` [Compound 289, 4-((5S,5aS,6S,9R)-1-fluoro-12-((1-((3-fluoro-3-methylazetidin-1-yl)methyl)cyclopropyl)methoxy)-5-methyl-5a,6,7,8,9,10-hexahydro-5H-4-oxa-3,10a,11,13,14-pentaaza-6,9-methanonaphtho[1,8-ab]heptalene-2-yl)-6-methyl-5-(trifluoromethyl)pyridin-2-amine] are 3.15 nM and 573 nM.
The matching figures for `CO[C@@H]1CN(CC2(COc3nc4c5c(nc(-c6cc(N)nc(C)c6C(F)(F)F)c(F)c5n3)O[C@@H](C)[C@@H]3[C@@H]5CC[C@H](CN43)N5)CC2)C[C@@H]1F` [Compound 290, 4-((5S,5aS,6S,9R)-1-fluoro-12-((1-(((3S,4R)-3-fluoro-4-methoxypyrrolidin-1-yl)methyl)cyclopropyl)methoxy)-5-methyl-5a,6,7,8,9,10-hexahydro-5H-4-oxa-3,10a,11,13,14-pentaaza-6,9-methanonaphtho[1,8-ab]heptalen-2-yl)-6-methyl-5-(trifluoromethyl)pyridin-2-amine]: 2.53 nM and 2780 nM.
